Laboratory results from patent US10106627B2, “Process for the preparation of polymeric biosurfactants” (priority 2014, dated 2018).
Converted amounts (≈) assume the structure as drawn. *1 amine or outer side, *2 acyl side, *3 side chain or, on linkers, in order; H or OH if unused. Where a SMILES comes first, the peptide text is derived from it. Bridges are numbered along the chain shown (N, C = ends). [ ]: non-standard residue; d: D form. X1 = CC(C)CCCCCCCCC[C@H](CC(=O)[*:1])O[*:2]

Legend:
[1] = system: Bacillus subtilis MTCC 121; assay: Microtiter broth dilution MIC; format: cell-based; settings: Bacillus subtilis MTCC 121, 24 h, 35° C.
Experimental: (§1) The antimicrobial activity of Microsan and M-EPS-Au-NP was determined using the microtiter broth dilution method [Kumar, C. G. and Mamidyala, S. K. (2011) Coll. Surf B: Biointerf. 84, 462-466]. Different bacterial pathogens (10^7 cfu ml^−1 cells) were inoculated in 100 μl of Muller-Hinton broth. Different concentrations of Microsan, M-EPS-Au-NP and Brevisan were added to each strain and incubated for 24 h at 35° C. After incubation, 40 μl of p-iodonitrotetrazolium (INT, Sigma) dye (0.02%, 20 mg INT dissolved in 100 ml of 40% dimethyl formamide was added to each well and incubated for 2 h. The reduction of p-iodonitrotetrazolium was spectroscopically measured at 450 nm using TRIAD multimode reader (Dynex Technologies, Inc., Chantilly, Va.) to determine the minimum inhibitory concentration (MIC) values. Commercially available surfactin (CAS 24730-31-2; Sigma-Aldrich) and laminarin (CAS No 9008-22-4; Sigma-Aldrich) used as positive controls were run in parallel for comparison. The MIC values of Microsan and M-EPS-Au-NP observed against the tested bacterial strains are shown in Table 3.

[2] = system: Escherichia coli MTCC 739; assay: Microtiter broth dilution MIC; format: cell-based; settings: Escherichia coli MTCC 739, 24 h, 35° C.
Experimental: as §1

[3] = system: Klebsiella planticola MTCC 530; assay: Microtiter broth dilution MIC; format: cell-based; settings: Klebsiella planticola MTCC 530, 24 h, 35° C.
Experimental: as §1

[4] = system: Micrococcus luteus MTCC 2470; assay: Microtiter broth dilution MIC; format: cell-based; settings: Micrococcus luteus MTCC 2470, 24 h, 35° C.
Experimental: as §1

[5] = system: Pseudomonas aeruginosa MTCC 2453; assay: Microtiter broth dilution MIC; format: cell-based; settings: Pseudomonas aeruginosa MTCC 2453, 24 h, 35° C.
Experimental: as §1

[6] = system: Staphylococcus aureus MLS16 MTCC 2940; assay: Microtiter broth dilution MIC; format: cell-based; settings: Staphylococcus aureus MLS16 MTCC 2940, 24 h, 35° C.
Experimental: as §1

[7] = system: Staphylococcus aureus MTCC 96; assay: Microtiter broth dilution MIC; format: cell-based; settings: Staphylococcus aureus MTCC 96, 24 h, 35° C.
Experimental: as §1

[8] = DPPH free radical scavenging assay (cell free); format: biochemical; settings: 35° C., 30 min
Experimental: (§2) The antioxidant activity of Microsan from Microbacterium sp. strain BS-2 and Brevisan from Brevibacillus sp. strain BS-207 in cell free system was measured by its inhibitory activity on the generation of DPPH free radicals, superoxide anions (O^2−), lipid peroxidation and erythrocyte hemolysis. The DPPH free radical scavenging assay was performed using 2,2-diphenyl-1-picrylhydrazyl (DPPH) free radical scavenging method [Ara. N. and Hasan, N. (2009) Res. J. Med. Medical Sci. 4, 107-110]. Different concentrations of Microsan and Brevisan were mixed individually with 150 μl of 160 μM methanolic solution of DPPH and incubated at 35° C. for 30 min in dark. The effective concentration (EC50) was calculated by measuring the absorbance of the samples at 517 nm. The superoxide anion scavenging was measured using phenazine methosulfate-nicotinamide adenine dinucleotide (PMS/NADH) method as previously described [Liu, F., Ooi, V. E. and Chang, S. T. (1997) Life Sci. 60, 763-771]. The lipid peroxidation assay was performed using the previously described method [Zhang, Q., Yu, P., Li, Z., Zhang, H., Xu, Z. and Li, P. (2003) J. Appl. Phycol. 15, 305-310] which is based on measuring the lipid peroxide decomposed product malondialdehyde (MDA). […] Samples were incubated at 37° C. for 30 min and the absorbance was measured at 540 nm. […]

[9] = Superoxide anion scavenging (PMS/NADH method); format: biochemical; settings: cell free
Experimental: as §2

[10] = Lipid peroxidation assay (malondialdehyde); format: biochemical; settings: cell free
Experimental: as §2

erythrocytes = assay: Erythrocyte hemolysis assay (H2O2); format: cell-based; settings: Erythrocyte, 0.5 h; human erythrocytes, H2O2, 37° C., 30 min; read-out: EC50 erythrocyte hemolysis inhibition
Experimental: as §2

CC(C)CCCCCCCCC[C@@H]1CC(=O)N[C@@H](CCC(=O)O)C(=O)N[C@@H](CC(C)C)C(=O)N[C@H](CC(C)C)C(=O)N[C@@H](C(C)C)C(=O)N[C@@H](CC(=O)O)C(=O)N[C@H](CC(C)C)C(=O)N[C@@H](CC(C)C)C(=O)O1 [Surfactin] (EL[dL]VD[dL]L; linker N-C via X1)
MIC ([1]; MTCC121, read-out: Minimum inhibitory concentration (MIC)): 4.68 µg/mL (≈ 4.52 µM)
MIC ([2]; MTCC739, read-out: Minimum inhibitory concentration (MIC)): 9.37 µg/mL (≈ 9.04 µM)
MIC ([3]; MTCC530, read-out: Minimum inhibitory concentration (MIC)): 9.37 µg/mL (≈ 9.04 µM)
MIC ([4]; MTCC2470, read-out: Minimum inhibitory concentration (MIC)): 18.8 µg/mL (≈ 18.1 µM)
MIC ([5]; MTCC2453, read-out: Minimum inhibitory concentration (MIC)): 18.8 µg/mL (≈ 18.1 µM)
MIC ([6]; MTCC2940, read-out: Minimum inhibitory concentration (MIC)): 18.8 µg/mL (≈ 18.1 µM)
MIC ([7]; MTCC96, read-out: Minimum inhibitory concentration (MIC)): 9.37 µg/mL (≈ 9.04 µM)

O=C1O[C@H]([C@@H](O)CO)C(O)=C1O [ascorbic acid, reference compound]
EC50 DPPH free radical scavenging [8]: 40.28 µg/mL (≈ 229 µM)
EC50 superoxide anions (O^2−) scavenging [9]: 21.1 µg/mL (≈ 120 µM)
EC50 lipid peroxidation inhibition [10]: 130.97 µg/mL (≈ 744 µM)
EC50 (erythrocytes): 120 µg/mL (≈ 680 µM)

Laminarin
Minimum inhibitory concentration (MIC) [1]: 9.37 µg/mL
Minimum inhibitory concentration (MIC) [2]: 18.75 µg/mL
Minimum inhibitory concentration (MIC) [3]: 4.68 µg/mL
Minimum inhibitory concentration (MIC) [4]: 4.68 µg/mL
Minimum inhibitory concentration (MIC) [5]: 4.68 µg/mL
Minimum inhibitory concentration (MIC) [6]: 37.5 µg/mL
Minimum inhibitory concentration (MIC) [7]: 18.75 µg/mL
